Test results published in patent US6461997B1, “Triazole sulfones having herbicidal activity” (Monsanto Technology LLC, priority 1999, dated 2002).

What was measured:
[1] = system: SASKR (russian thistle); assay: Pre-emergence herbicidal activity, cool season; format: in vivo, Salsola kali; conditions: lowest tested rate with 80% or greater inhibition; rates 300, 100, 30, 10 g/ha; about 14 days
Outline: (§1)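 GR80 values derive from percent inhibition relative to untreated plants, read roughly 14 days after sowing and pre-emergence soil-surface treatment (compound in 50:50 acetone/water; rates typically 10, 30, 100, 300 g/ha). Warm-season weeds grew at 30/21° C day/night, cool-season ones at 18/13° C; an asterisk marks activity without reaching 80% at the highest rate.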

[2] = system: STEME (common chickweed); assay: Pre-emergence herbicidal activity, cool season; format: in vivo, Stellaria media; conditions: lowest tested rate with 80% or greater inhibition; rates 300, 100, 30, 10 g/ha; about 14 days
Outline: as §1

[3] = system: rice (ORYSA); assay: Selectivity test, PPI, warm season crop; format: in vivo, Oryza sativa; conditions: PPI application; for inhibition at 10 g/ha / inhibition at 30 g/ha / inhibition at 100 g/ha / inhibition at 300 g/ha / inhibition at 900 g/ha: Oryza sativa, read-out: Percent inhibition ORYSA
Procedure: A pre-prepared topsoil mixture (described above) was placed in a pot and compacted to a depth of 1.0 to 1.25 cm from the top of the pot. Seeds of each of several monocotyledonous and dicotyledonous annual plant species were placed on top of the soil. A sufficient quantity of soil to cover the seeds and level fill the pot was weighed into an open container. A known amount of the test compound was dissolved or suspended in an organic solvent and applied by spraying to this cover soil. The cover soil was thoroughly mixed to distribute the test compound throughout the cover soil, and was then applied as a cover layer over the seeds. Untreated soil was used as a cover layer for control pots. After treatment the plants were placed in a greenhouse where they received 0.64 cm of overhead irrigation. All subsequent watering consisted of a light overhead mist and/or subirrigation as needed for germination and growth. Tables 9 and 10 below relate to warm season plant species which were placed after pre-emergence treatment in a greenhouse with a 30/21° C. day/night temperature regime. Tables 11 and 12 below relates to cool season plant species placed after pre-emergence treatment in a greenhouse or growth chamber with an 18/13° C. day/night temperature regime. Only the compounds of Examples 1, 6, 8, 11, 13 and 15-20 were included in PPI tests.
Approximately 14 days after planting and treating, the plants were observed and herbicidal efficacy recorded as percent inhibition by comparison with untreated plants.
Additional pre-emergence and PPI tests were conducted by the procedures described above, on warm and cool season weed species in the presence of crop species, to assess herbicidal selectivity. Crop species included in warm season tests were corn (Zea mays, ZEAMX), rice (Oryza sativa, ORYSA) and soybean (Glycine max, GLYMX). Crop species included in cool season tests were wheat (Triticum aestivum, TRZAW), barley (Hordeunm vulgare, HORVX) and oilseed rape (Brassica napus, BRSNS).
Tables 15 and 16 relate to pre-emergence and PPI tests respectively on warm season species. Table 17 relates to pre-emergence tests on cool season species.

[4] = system: CIRAR (canada thistle (seedling)); assay: Pre-emergence herbicidal activity, warm season; format: in vivo, Cirsium arvense; conditions: GR80 = lowest tested rate (300, 100, 30, 10 g/ha) with 80% or greater inhibition; approx. 14 days after treating; 30/21° C.
Outline: as §1

[5] = system: SORHA (johnsongrass (seedling)); assay: Pre-emergence herbicidal activity, warm season; format: in vivo, Sorghum halepense; conditions: for Pre-emergence activity (GR80) SORHA: GR80 = lowest tested rate (300, 100, 30, 10 g/ha) with 80% or greater inhibition, approx. 14 days after treating, 30/21° C.; for inhibition at 10 g/ha / inhibition at 30 g/ha / inhibition at 100 g/ha / inhibition at 300 g/ha / inhibition at 900 g/ha: Sorghum halepense, pre-emergence application, read-out: Percent inhibition, weed SORHA
Outline: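 Activity is expressed as the rate giving 80% inhibition, with 300, 100, 30 and 10 g/ha typically tested. An asterisk marks activity short of 80% at the top rate. Warm-season grasses were held at 30/21 °C; cool-season blackgrass and wild buckwheat at 18/13 °C; scoring at about 14 days.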

[6] = system: SETVI (green foxtail); assay: Pre-emergence herbicidal activity, cool season; format: in vivo, Setaria viridis; conditions: GR80 = lowest tested rate (300, 100, 30, 10 g/ha) with 80% or greater inhibition; approx. 14 days after treating; 18/13° C.
Outline: as §1

[7] = system: SETVI (green foxtail); assay: Post-emergence herbicidal activity, cool season; format: in vivo, Setaria viridis; conditions: abraded plants sprayed at 300, 100, 30 and 10 g/ha; about 14 days after treatment
Procedure: In another set of tests, the post-emergence activity of compounds of this invention was evaluated on the cool season species listed above. The following procedure was used.
A pre-prepared topsoil mixture (described above) was placed in a pot and compacted to a depth of 1.0 to 1.25 cm from the top of the pot. Seeds of each of several monocotyledonous and dicotyledonous annual plant species were placed on top of the soil. The seeds were covered with a mixture of 50% topsoil and 50% Rediearth™ in sufficient quantity to level-fill the pots. The pots were then placed on a greenhouse bench and subirrigated as needed.
When plants growing from the seeds had emerged and reached a suitable growth stage for post-emergence treatment, typically 9 to 14 days after planting, above-ground parts of the plants were subjected to a pre-treatment involving abrasion to create greater opportunity for foliar uptake of subsequently applied compounds. Abrasion was performed using garnet 200w particles applied with a Sears Craftsman hand-held sandblaster operated at approximately 850 kPa (50 psig) pressure.
A known amount of each test compound dissolved or suspended in an appropriate organic solvent was diluted with a 50:50 mix of acetone and water and applied to the plants by spraying with a standard spray nozzle in a spray volume of […] at a spray pressure of 511 kPa (30 psig). Only the compounds of Examples 1, 8-15 and 17-22 were included in post-emergence tests. Application rates for these compounds were 300, 100, 30 and 10 g/ha. Control plants were abraded but not sprayed.
After treatment the plants were placed in a greenhouse with an 18/13° C. day/night temperature regime and were subsequently watered as needed for growth. Approximately 14 days after treatment, the plants were observed and herbicidal efficacy recorded as percent inhibition by comparison with control plants. GR80 values were assigned for each compound as described above for the pre-emergence tests.

| SMILES | Pre-emergence activity GR80, SASKR [1] | Pre-emergence activity GR80, STEME [2] | inhibition at 30 g/ha ([3]; 30 g/ha) [%] | inhibition at 100 g/ha ([3]; 100 g/ha) [%] | inhibition at 300 g/ha ([3]; 300 g/ha) [%] | inhibition at 900 g/ha ([3]; 900 g/ha) [%] | Pre-emergence activity (GR80) CIRAR [4] [g/ha] | Pre-emergence activity (GR80) SORHA [5] [g/ha] | Pre-emergence activity (GR80) SETVI [6] [g/ha] | Post-emergence activity GR80, SETVI [7] | Percent inhibition ORYSA ([3]; 30 g/ha) [%] | Percent inhibition ORYSA ([3]; 100 g/ha) [%] | Percent inhibition ORYSA ([3]; 300 g/ha) [%] | Percent inhibition ORYSA ([3]; 900 g/ha) [%] | other results |
| --- | --- | --- | --- | --- | --- | --- | --- | --- | --- | --- | --- | --- | --- | --- | --- |
| CCN(CC)C(=O)n1cnc(S(=O)(=O)C(F)(F)Br)n1 [Example 1, 3-(bromodifluoromethylsulfonyl)-1-(N,N-diethylcarbamoyl)-1,2,4-triazole] | 300 g/ha | 100 g/ha | 0 | 40 | 60 | 90 | 100 | 30 | 30 | [empty] | – | – | – | – | inhibition at 10 g/ha ([3]; 10 g/ha): 0%; inhibition at 10 g/ha [5]: 0%; inhibition at 30 g/ha [5]: 0%; inhibition at 100 g/ha [5]: 50%; inhibition at 300 g/ha [5]: 70%; inhibition at 900 g/ha [5]: 99% |
| CCN(CC)C(=O)n1cnc(S(=O)(=O)C(F)(F)F)n1 [Example 2] | 100 g/ha | 10 g/ha | – | – | – | – | 300 | 100 | 30 | – | 0 | 0 | 0 | 30 | – |
| CCN(CC)C(=O)n1cnc(S(=O)(=O)C(F)(F)Cl)n1 [Example 3] | [empty] | 30 g/ha | – | – | – | – | 30 | 100 | 100 | – | 0 | 0 | 20 | 70 | – |
| CCN(CC)C(=O)n1cnc(S(=O)(=O)C(F)(F)C(F)(F)Br)n1 [Example 4] | 30 g/ha | 10 g/ha | – | – | – | – | 30 | 30 | 30 | – | 0 | 0 | 0 | 20 | – |
| CCN(CC)C(=O)n1cnc(S(=O)(=O)C(F)(F)C(=O)c2ccccc2)n1 [Example 6] | [empty] | 300 g/ha | – | – | – | – | 300 | 100 | 300 | – | – | – | – | – | – |
| CCSC(F)(F)S(=O)(=O)c1ncn(C(=O)N(CC)CC)n1 [Example 8, 1-(N,N-diethylcarbamoyl)-3-[difluoro(ethylthio)methylsulfonyl]-1,2,4-triazole] | 300 g/ha | [empty] | 0 | 40 | 50 | 70 | 300 | 100 | 100 | [empty] | – | – | – | – | – |
| CCN(CC)C(=O)n1cnc(S(=O)(=O)C(F)(F)SC)n1 [Example 9] | 300 g/ha | 300 g/ha | – | – | – | – | 100 | 100 | 100 | [empty] | 0 | 0 | 70 | 95 | – |
| CCN(CC)C(=O)n1cnc(S(=O)(=O)C(F)(F)SCCOC)n1 [Example 13] | [empty] | 100 g/ha | – | – | – | – | – | – | 100 | [empty] | 30 | 70 | 60 | 80 | Percent inhibition ORYSA ([3]; 10 g/ha): 0% |
| CCN(CC)C(=O)n1cnc(S(=O)(=O)C(F)(F)C(F)(F)SC)n1 [Example 14] | [empty] | 300 g/ha | – | – | – | – | 300 | 300 | 30 | [empty] | – | – | – | – | – |
| CCN(CC)C(=O)n1cnc(S(=O)(=O)C(F)F)n1 [Example 15, 1-(N,N-diethylcarbamoyl)-3-(difluoromethylsulfonyl)-1,2,4-triazole] | – | – | 0 | 0 | 0 | 0 | 30 | 100 | – | [empty] | – | – | – | – | inhibition at 10 g/ha ([3]; 10 g/ha): 0%; inhibition at 10 g/ha [5]: 0%; inhibition at 30 g/ha [5]: 0%; inhibition at 100 g/ha [5]: 30%; inhibition at 300 g/ha [5]: 95%; inhibition at 900 g/ha [5]: 100% |
| CCN(CC)C(=O)n1cnc(S(=O)(=O)C(F)(F)C(F)F)n1 [Example 16] | 100 g/ha | 300 g/ha | – | – | – | – | – | 100 | 300 | – | 0 | 30 | 90 | 100 | Percent inhibition ORYSA ([3]; 10 g/ha): 0% |
| C=CCC(F)(F)S(=O)(=O)c1ncn(C(=O)N(CC)CC)n1 [Example 17, 1-(N,N-diethylcarbamoyl)-3-[(1,1-difluoro-3-butenyl)sulfonyl]-1,2,4-triazole] | 100 g/ha | 100 g/ha | 0 | 0 | 30 | 60 | – | 100 | 100 | [empty] | – | – | – | – | inhibition at 10 g/ha ([3]; 10 g/ha): 0% |
